Experimental data reported in patent US20040167226A1, “Methods for the treatment of pain and traumatic injury using benzamides and compositions containing the same” (priority 2002, published 2004).

Assays:
Type in all cases: in vivo
[1] = tested on: fluid percussion brain injury; test: Lateral fluid percussion injury (FPI) model of traumatic brain injury; details: rats
Protocol: Compound A was tested for efficacy in an animal model of traumatic brain injury. Specifically, Compound A was evaluated in the lateral fluid percussion injury (FPI) model developed by McIntosh (McIntosh T. K., et. al (1989), Neuroscience 28:233-244). This model replicates many of the pathological aspects found in humans who have sustained traumatic brain injury. Furthermore, the damage caused by the injury is sensitive to pharmacological intervention, and thus provides a robust method for preclinical efficacy testing. In this model, animals are subjected to a fluid percussion brain injury, and are then given Compound A shortly thereafter. At specific time points, animals are evaluated using outcome measures that assess cognitive and locomoter deficits that are consequences of the injury. In addition, following behavioral analysis, animals are sacrificed and their brains assessed with respect to a variety of histopathological parameters.
For these studies, experimental parameters are used that were previously developed by Dr. Tracy McIntosh, Director of the University of Pennsylvania Head Injury Center. In these studies, male rats (350-400 g) are used for injuries. All animals are injured at a moderate/severe injury level (2.5-3.0 atm) via a craniotomy positioned over the left parietal cortex centered between Bregma and Lambda. […] Following behavioral testing, these animals are sacrificed, and their brains are analyzed for tissue damage (cortical volume loss, and neuronal cell counts), and other histopathological readouts.
The ability of Compound A to restore cognitive deficits in spatial memory and learning is evaluated at 48 hrs post injury using the Morris watermaze paradigm (Smith D. H. et al. (1991), J. Neurotrauma 8(4): 259-269; Schmidt, R. H. et al. (1999), J. Neurotrauma 16(12): 1139-1147). […] In the learning paradigm, the animals are trained to find the platform, and the reduction in latency with increasing number of training sessions is recorded. […]

[2] = Brain-blood distribution of Compound A in the mouse; details: brain / whole blood, single po dose 30 mg/kg, n = 5, read-out: Brain/Blood Ratio (Mean ± SD)
Protocol: Blood-brain distribution of Compound A was assessed in the mouse, rat, and squirrel monkey by determining the concentrations of Compound A in blood and brain tissue at specific times post dose. Rats and mice received a single po dose of 30 mg/kg. The monkeys received a twice-daily 10 mg/kg po dose of Compound A for a total of 5 weeks prior to sacrifice. Brain to blood ratios for Compound A, as shown below in Table 4, show high penetration of the blood-brain barrier.

[3] = tested on: neurofilament (nerve fiber density); test: Immunohistochemistry of neurofilament on transverse spinal cord sections; details: rats after spinal cord injury; anti-neurofilament staining; sections rostral and caudal to epicenter
Protocol: (§1) Compound A was tested in both the rat dorsal hemisection (Guth, L. et al. (1980), J. Neurosurgery 52: 73-86) and contusion models (Scheff, S. W. (2003), J. Neurotrauma 20: 179-193) for evaluation of efficacy. These models are widely used in the field of spinal cord injury and replicate many of the pathological aspects found in humans who have sustained a spinal cord injury. Rats were subjected to an experimental spinal cord injury at T8, and were given Compound A shortly thereafter. Behavioral tests to assess the locomotion deficits were performed after the lesion. At the end of the experiment, animals were sacrificed and the spinal cord was collected for histopathological analysis. […] Histological assessment of the tissue at the site of injury was also made in both the drug treated and untreated group. In particular, subsequent to the behavioral measurement, spinal cord tissue from each animal was obtained and serial transverse tissue sections were stained with either anti-neurofilament antibody or antibodies specific for the inflammatory markers, tumor necrosis factor alpha (TNFα) and for the inducible form of nitric oxide synthetase (iNOS), followed by incubation with Alexa Fluor®-conjugated secondary antibodies.

TNFα = test: Immunohistochemistry for inflammatory marker TNFα on contused spinal cord; details: rats after contusion injury; 72 h post-injury, 1 mm caudal to epicenter
Protocol: as §1
Histological assessment of the tissue at the site of injury was also made in both the drug treated and untreated group. […]

CC(=O)Nc1ccc(C(=O)NC(C)(C)C)cc1 [Compound A, N-tert-butyl-4-acetamidobenzamide]
effects on the other locomotor tests, beam balance and rotating pole (in words) ([1]; Study Number 1, 20 mg/kg/BID i.p. 7 days, 75% PEG 200): limited
effects on the composite neuroscore (in words) ([1]; Study Number 1, 20 mg/kg/BID i.p. 7 days, 75% PEG 200, acute and long term): robust acute and long term effects
effects in acute or long term locomotor or cognitive tests (in words) ([1]; Study Number 2, 10 and 20 mg/kg/BID i.p. 5 days, 50% PEG 400 and 25% ethanol): No effects of the compound were observed
Kp at 0.5 h ([2]; 0.5 h post-dose): 0.79 ± 0.05
Kp at 1 h ([2]; 1.0 h post-dose): 0.8 ± 0.05
Kp at 2 h ([2]; 2.0 h post-dose): 0.76 ± 0.06
nerve fiber density in spinal cord tissue vs vehicle control [3]: significantly higher nerve fiber density
inflammatory marker TNFα in the region of the corticospinal tract vs untreated control (TNFα): decreased
